The source made the active and inactive calls. No cut-off for these calls is given here.
Columns and labels:
HUVEC [1] = test: Antiproliferative activity against HUVEC assessed as effect on cell viability up to 30 uM after 24 hrs by trypan blue assay; format: functional, cell-based; settings: Homo sapiens
Integrin alpha-V/beta-3 = Integrin alpha-V/beta-3 (Homo sapiens, UniProt P05106+P06756); test: Inhibition of vitronectin binding to recombinant human integrin alphaV (Phe31 to Val992 residues) beta3 (Gly27 to Asp718 residues) expressed in CHO cells by ELISA based solid phase binding assay; format: cell-based
Integrin alpha-V/beta-6 = Integrin alpha-V/beta-6 (Homo sapiens, UniProt P06756+P18564); test: Inhibition of latency-associated peptide/TGF-beta binding to recombinant human integrin alphaV (Phe31 to Val992 residues) beta6 (Gly22 to Asn707 residues) expressed in CHO cells by ELISA based solid phase binding assay; format: cell-based
Integrin alpha-V/beta-5 = Integrin alpha-V/beta-5 (Homo sapiens, UniProt P06756+P18084); test: Inhibition of vitronectin binding to recombinant human integrin alphaV (Phe31 to Val992 residues) beta5 (Gly24 to Asn719 residues) expressed in CHO cells by ELISA based solid phase binding assay; format: cell-based
[2] = target: Integrin alpha-IIb/beta-3 (Homo sapiens, UniProt P05106+P08514); test: Inhibition of fibrinogen binding to human platelet integrin alpha2b beta3 by ELISA based solid phase binding assay
Integrin alpha-V/beta-8 = Integrin alpha-V/beta-8 (Homo sapiens, UniProt P06756+P26012); test: Inhibition of latency-associated peptide/TGF-beta binding to recombinant human integrin alphaV (Phe31 to Val992 residues) beta8 (Glu43 to Arg684 residues) expressed in CHO cells by ELISA based solid phase binding assay; format: cell-based
Integrin alpha-5/beta-1 = Integrin alpha-5/beta-1 (Homo sapiens, UniProt P05556+P08648); test: Inhibition of fibronectin binding to recombinant human integrin alpha5 (Phe42 to Tyr995 residues) beta1 (Gln21 to Asp728 residues) expressed in CHO cells by ELISA based solid phase binding assay; format: cell-based
HUVEC [3] = test: Inhibition of tube formation in HUVEC up to 30 uM after 24 hrs […]; format: functional, cell-based; settings: Homo sapiens

Row | SMILES | Activity (HUVEC [1]) | IC50 (Integrin alpha-V/beta-3) [nM] | IC50 (Integrin alpha-V/beta-6) [nM] | IC50 (Integrin alpha-V/beta-5) [nM] | IC50 [2] [nM] | IC50 (Integrin alpha-V/beta-8) [nM] | IC50 (Integrin alpha-5/beta-1) [nM] | inhibition (HUVEC [3])
1 | N=C(N)NCCC[C@@H]1NC(=O)CC2(CCCCC2)CNC(=O)[C@@H](Cc2ccccc2)NC(=O)[C@H](CC(=O)O)NC(=O)CNC1=O | inactive | 9.9 | 1970 | 303 | 657 | 3950 | 623 | inactive
2 | N=C(N)NCCC[C@@H]1NC(=O)C2(CCCCC2)NC(=O)[C@@H](Cc2ccccc2)NC(=O)[C@H](CC(=O)O)NC(=O)CNC1=O | inactive | 3.3 | 608 | 63 | > 10000 | 1500 | 87.8 | inactive
3 | COc1c2cccc1C(=O)N[C@@H](CCCNC(=N)N)C(=O)NCC(=O)N[C@@H](CC(=O)O)C(=O)N[C@H](Cc1ccccc1)C(=O)N2 | inactive | 72 | 709 | 4930 | 4860 | 6880 | 921 | inactive
4 | C[Si]1(C)C[C@@H]2C(=O)N[C@@H](CCCNC(=N)N)C(=O)NCC(=O)NC(CC(=O)O)C(=O)NC(Cc3ccccc3)C(=O)N2C1 (single isomer, unassigned) | inactive | 11 | 178 | 66 | > 10000 | 319 | 1080 | inactive
5 | CC1(C)NC(=O)[C@@H](Cc2ccccc2)NC(=O)[C@H](CC(=O)O)NC(=O)CNC(=O)[C@H](CCCNC(=N)N)NC1=O | inactive | 5.5 | 378 | 50 | > 10000 | 806 | 141 | inactive

— ChEMBL document CHEMBL4627306, “Novel cilengitide-based cyclic RGD peptides as αvβ3 integrin inhibitors” (Bioorg Med Chem Lett, 2020)
